Source: publication PMC467105, “A comprehensive investigation of the anion inhibition profile of a β-carbonic anhydrase from Acinetobacter baumannii for crafting innovative antimicrobial treatments” (Journal of Enzyme Inhibition and Medicinal Chemistry, 2024)
Like-named read-outs stand apart in the source and are kept apart here.

Key:
[1] = biological target: PgiCAβ (Porphyromonas gingivalis β-CA); parameters: method as in PMID 24146373; details: cited from earlier work
[2] = biological target: β-AbauCA (Acinetobacter baumannii β-CA, CanB) (Acinetobacter baumannii, UniProt A0A7U3Y636); assay: biochemical; assay type: biochemical
[3] = CO2 hydrase, stopped-flow assay

UniProt A0A7U3Y636, sequence (A0A7U3Y636 1-204): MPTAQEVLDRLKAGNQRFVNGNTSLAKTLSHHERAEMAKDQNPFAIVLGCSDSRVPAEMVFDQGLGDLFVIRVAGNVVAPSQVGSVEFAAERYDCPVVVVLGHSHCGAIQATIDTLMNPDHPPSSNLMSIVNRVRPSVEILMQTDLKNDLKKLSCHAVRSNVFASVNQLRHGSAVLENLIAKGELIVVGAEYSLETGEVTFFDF

| SMILES | Ki [1, 3] [mM] | affinity / Ki for β-AbauCA (in words) [2] | Ki ([2]; read-out: Ki β-AbauCA) [mM] | Ki [1] [mM] | Ki [2] [mM] |
| --- | --- | --- | --- | --- | --- |
| NS(N)(=O)=O [Anion H2NSO2NH2, sulfamide] | 0.078 | low millimolar affinity | 2.1 | – | – |
| NS(=O)(=O)O [Anion H2NSO3H, sulphamic acid] | 0.06 | submillimolar | 0.63 | – | – |
| OB1OB2OB(O)OB(O1)O2 [B4O7^2-, tetraborate] | – | low millimolar affinity | 6.9 | – | – |
| F[B-](F)(F)F [BF4^-, tetrafluoroborate] | > 100 | – | > 100 | – | – |
| Br [Br^-] | 15.9 | – | > 100 | – | – |
| O=S(=O)(O)C(F)(F)F [CF3SO3^-, triflate] | 8.5 | – | > 100 | – | – |
| N#CO [CNO^-, cyanate] | – | submillimolar | 0.79 | 0.76 | – |
| O=C(O)O [CO3^2-, carbonate] | – | – | > 100 | 3.7 | – |
| S=C(S)S [CS3^2-, trithiocarbonate] | 4.3 | low millimolar affinity | 3.3 | – | – |
| [O-][Cl+3]([O-])([O-])O [ClO4^-, perchlorate] | – | – | > 100 | > 100 | – |
| Cl [Cl^-] | 7.5 | – | > 100 | – | – |
| CCN(CC)C(=S)S [Et2NCS2^-, diethyldithiocarbamate] | 0.23 | low millimolar affinity | – | – | 8.2 |
| F [F^-] | 7.8 | – | > 100 | – | – |
| O=C(O)O [HCO3^-, bicarbonate] | – | – | – | 7.3 | – |
| O=S(O)O [HSO3^-, bisulphite] | > 100 | – | 59.1 | – | – |
| S [HS^-, hydrogensulfide] | – | submillimolar | 0.4 | 4.5 | – |
| I [I^-] | 21.4 | – | > 100 | – | – |
| [N-]=[N+]=[N-] [N3^-, azide] | – | – | > 100 | > 100 | – |

| SMILES | Ki [1, 3] [mM] | affinity / Ki for β-AbauCA (in words) [2] | Ki ([2]; read-out: Ki β-AbauCA) [mM] | Ki [1] [mM] | Ki [2] [mM] |
| --- | --- | --- | --- | --- | --- |
| O=S(=O)(O)NS(=O)(=O)O [NH(SO3)2^2-, iminodisulfonate] | 2.1 | submillimolar | 0.93 | – | – |
| O=NO [NO2^-, nitrite] | – | – | 31.1 | 7.8 | – |
| O=[N+]([O-])O [NO3^-, nitrate] | > 100 | – | 47.9 | – | – |
| O=P(O)(O)OP(=O)(O)O [P2O7^4-, pyrophosphate] | 8.2 | – | 33.6 | – | – |
| F[P-](F)(F)(F)(F)F [PF6^-, hexafluorophosphate] | 8.2 | – | – | – | – |
| O=[As](O)(O)c1ccccc1 [Ph-AsO3H2, phenylarsonic acid] | – | – | – | 0.076 | – |
| OB(O)c1ccccc1 [Ph-B(OH)2, phenylboronic acid] | – | submillimolar | – | 0.077 | 0.29 |
| [O]=[Re](=[O])(=[O])[O-] [ReO4^-, perrhenate] | – | low millimolar affinity | 8.1 | – | – |
| [O]=[Ru](=[O])(=[O])=[O] [RuO4^-, perrhuthenate] | – | submillimolar | 0.96 | – | – |
| O=S(=O)(O)OOS(=O)(=O)O [S2O8^2-, peroxydisulfate] | 9.2 | low millimolar affinity | 3.8 | – | – |
| N#CS [SCN^-, thiocyanate] | 1.9 | low millimolar affinity | – | – | – |
| O=S(=O)(O)O [SO4^2-, sulphate] | – | – | 79.3 | > 100 | – |
| N#C[SeH] [SeCN^-, selenocyanide] | – | submillimolar | 0.71 | 2.4 | – |
| O=[Se](=O)(O)O [SeO4^2-, selenate] | – | – | 18.4 | 9.2 | – |
| [O]=[Sn]([OH])[OH] [SnO3^2-, stannate] | – | low millimolar affinity | 2.4 | – | – |
| O=[Te](=O)(O)O [TeO4^2-, tellurate] | – | – | 6 | – | – |
| [O]=[V]([OH])([OH])[O][V](=[O])([OH])[OH] [V2O7^4-, divanadate] | – | low millimolar affinity | 5.8 | – | – |
